Measured values from ChEMBL document CHEMBL1152978 (J Med Chem, 2009).

What was measured:
[1] = target: T1, Muscarinic acetylcholine receptor M3 (Homo sapiens, UniProt P20309); assay: Displacement of [3H]NMS from human muscarinic M3 receptor expressed in CHOK1 cells by microplate scintillation counting; type: cell-based, CHO-K1
[2] = target: T2, Muscarinic acetylcholine receptor M2 (Homo sapiens, UniProt P08172); assay: Displacement of [3H]NMS from human muscarinic M2 receptor expressed in CHOK1 cells by microplate scintillation counting; type: cell-based, CHO-K1
T2 sequence (P08172 whole entry): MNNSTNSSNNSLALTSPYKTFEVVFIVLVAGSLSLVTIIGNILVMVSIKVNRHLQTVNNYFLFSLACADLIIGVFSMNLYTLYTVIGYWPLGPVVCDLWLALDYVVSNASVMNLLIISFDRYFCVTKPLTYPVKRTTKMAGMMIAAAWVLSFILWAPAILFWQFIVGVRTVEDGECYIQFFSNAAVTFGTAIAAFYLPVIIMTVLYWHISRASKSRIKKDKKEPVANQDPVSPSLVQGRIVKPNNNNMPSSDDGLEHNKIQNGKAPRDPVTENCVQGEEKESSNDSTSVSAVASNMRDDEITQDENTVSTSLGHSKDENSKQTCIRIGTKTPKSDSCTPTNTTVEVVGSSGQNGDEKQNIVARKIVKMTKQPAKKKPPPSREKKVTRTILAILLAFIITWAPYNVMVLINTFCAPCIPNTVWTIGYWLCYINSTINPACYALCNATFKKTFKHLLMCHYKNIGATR

[3] = target: T3, Muscarinic acetylcholine receptor M1 (Homo sapiens, UniProt P11229); assay: Displacement of [3H]NMS from human muscarinic M1 receptor expressed in CHOK1 cells by microplate scintillation counting; type: cell-based, CHO-K1
T3 sequence (P11229 whole entry): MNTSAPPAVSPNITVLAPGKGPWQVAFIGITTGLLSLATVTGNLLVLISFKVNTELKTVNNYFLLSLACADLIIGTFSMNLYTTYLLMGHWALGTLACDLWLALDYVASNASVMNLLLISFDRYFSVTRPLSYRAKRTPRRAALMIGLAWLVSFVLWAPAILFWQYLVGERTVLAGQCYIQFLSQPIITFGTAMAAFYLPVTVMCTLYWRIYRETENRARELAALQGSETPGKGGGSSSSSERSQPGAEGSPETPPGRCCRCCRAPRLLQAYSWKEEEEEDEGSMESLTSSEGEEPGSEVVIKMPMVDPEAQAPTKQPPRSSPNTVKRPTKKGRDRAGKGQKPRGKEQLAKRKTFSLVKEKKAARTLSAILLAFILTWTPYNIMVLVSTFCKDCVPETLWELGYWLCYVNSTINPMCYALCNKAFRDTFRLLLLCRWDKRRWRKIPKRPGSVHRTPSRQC

Mus musculus [4] = assay: Toxicity in Swiss mouse assessed as neurobiological state and occurrence of xerostomia at 30 mg/kg, ip up to 24 hrs; type: organism-based; set-up: dose 30 mg/kg, route intraperitoneal; settings: in vivo
Cavia porcellus [5] = assay: Inhibition of acetylcholine-induced bronchoconstriction in Dunkin-Hartley guinea pig assessed as time taken to recover 50% of maximum inhibitory effect at 3 mg/mL administered as nebulized solution; type: functional
Cavia porcellus [6] = assay: Inhibition of acetylcholine-induced bronchoconstriction in Dunkin-Hartley guinea pig assessed as time taken to recover 50% of maximum inhibitory effect at 1 mg/mL administered as nebulized solution; type: functional
[7] = target: T3, Muscarinic acetylcholine receptor M1; assay: Binding affinity to muscarinic M1 receptor
Mus musculus [8] = assay: Toxicity in Swiss mouse assessed as occurrence of mydriasis at 30 mg/kg, ip up to 24 hrs; type: organism-based; set-up: dose 30 mg/kg, route intraperitoneal; settings: in vivo
[9] = Metabolic stability in human plasma assessed as elimination half life at pH 7.4; type: ADME, cell-free; settings: read-out: beta t1/2
[10] = target: T2, Muscarinic acetylcholine receptor M2; assay: Binding affinity to muscarinic M2 receptor
[11] = Chemical stability assessed as half life at pH 7.4 by UV-HPLC analysis; type: physicochemical; settings: buffer
[12] = target: T1, Muscarinic acetylcholine receptor M3
Description: Binding affinity to muscarinic M3 receptor

Cavia porcellus [13] = assay: Inhibition of acetylcholine-induced bronchoconstriction in Dunkin-Hartley guinea pig administered as nebulized solution; type: functional, organism-based
Cavia porcellus [14] = assay: Inhibition of acetylcholine-induced bronchoconstriction in Dunkin-Hartley guinea pig assessed as time taken to recover 50% of maximum inhibitory effect at 1 mg/mL administered as nebulized solution

T1 sequence (P20309 whole entry): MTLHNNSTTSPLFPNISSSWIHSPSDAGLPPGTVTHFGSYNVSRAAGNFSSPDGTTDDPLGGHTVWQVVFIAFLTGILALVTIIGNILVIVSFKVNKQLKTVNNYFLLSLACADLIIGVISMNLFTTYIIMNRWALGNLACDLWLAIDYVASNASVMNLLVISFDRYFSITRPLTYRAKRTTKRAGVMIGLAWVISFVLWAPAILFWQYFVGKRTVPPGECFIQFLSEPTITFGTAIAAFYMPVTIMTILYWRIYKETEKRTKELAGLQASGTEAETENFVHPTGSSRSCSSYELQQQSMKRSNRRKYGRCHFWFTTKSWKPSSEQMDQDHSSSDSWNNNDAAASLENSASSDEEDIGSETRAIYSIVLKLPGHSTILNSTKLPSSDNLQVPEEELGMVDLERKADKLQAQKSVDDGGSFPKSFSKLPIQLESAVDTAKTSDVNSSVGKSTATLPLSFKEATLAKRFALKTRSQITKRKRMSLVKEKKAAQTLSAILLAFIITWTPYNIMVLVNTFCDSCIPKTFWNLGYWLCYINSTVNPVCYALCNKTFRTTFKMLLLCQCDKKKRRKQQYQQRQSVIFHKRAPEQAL

Row | SMILES | IC50 [1] | IC50 [2] | IC50 [3] | Activity (Mus musculus [4]) | Time (Cavia porcellus [6]) | other results
1 | CC(C(=O)O[C@H]1C[N+]2(CCCOc3ccccc3)CCC1CC2)(c1cccs1)c1cccs1.[Br-] | 0.59 nM | 0.73 nM | 0.6 nM | Non-toxic | – | –
2 | O=C(O[C@H]1C[N+]2(CCCOc3ccccc3)CCC1CC2)[C@@](O)(c1cccs1)C1CCCC1.[Br-] | 1.62 nM | 1.01 nM | 0.81 nM | Non-toxic | – | Time (Cavia porcellus [5]): >6 h
3 | O=C(O[C@H]1C[N+]2(CCc3ccccc3)CCC1CC2)C1(O)c2ccccc2-c2ccccc21.[Br-] | 1.04 nM | 2.24 nM | 1.12 nM | Non-toxic | >6 h | –
4 | O=C(O[C@H]1C[N+]2(CCCOc3ccccc3)CCC1CC2)[C@](O)(c1cccs1)C1CCCC1.[Br-] | 0.18 nM | 0.14 nM | 0.15 nM | Non-toxic | >6 h | Ki [7]: 0.09 nM; Time (Cavia porcellus [5]): >6 h; Activity (Mus musculus [8]): Toxic; half-life [9]: > 60 min; Ki [10]: 0.06 nM; half-life [11]: > 60 min; Ki [12]: 0.07 nM
5 | O=C(O[C@H]1C[N+]2(CCCOc3ccccc3)CCC1CC2)C1(O)c2ccccc2Oc2ccccc21.[Br-] | 1.04 nM | 0.36 nM | 0.23 nM | Non-toxic | >6 h | –
6 | O=C(O[C@H]1C[N+]2(CCCOc3ccccc3)CCC1CC2)C(O)(c1ccsc1)c1ccsc1.[Br-] | 0.24 nM | 0.18 nM | 0.23 nM | Non-toxic | – | –
7 | O=C(O[C@H]1C[N+]2(CCCOc3ccccc3)CCC1CC2)[C@@](O)(c1ccccc1)c1cccs1.[Br-] | 0.25 nM | 0.17 nM | 0.16 nM | Non-toxic | – | –
8 | O=C(O[C@H]1C[N+]2(CCCOc3ccccc3)CCC1CC2)[C@](O)(c1ccccc1)c1cccs1.[Br-] | 0.48 nM | 0.31 nM | 0.38 nM | Non-toxic | – | –
9 | O=C(O[C@H]1C[N+]2(CCCOc3ccccc3)CCC1CC2)C(c1cccs1)c1cccs1.[Br-] | 0.37 nM | 0.35 nM | 0.34 nM | Non-toxic | – | –
10 | C[N+]1(C)[C@@H]2C[C@@H](OC(=O)C(O)(c3cccs3)c3cccs3)C[C@H]1[C@@H]1O[C@@H]12.O.[Br-] [TIOTROPIUM BROMIDE] | – | – | – | – | >6 h | IC50 (Cavia porcellus [13]): 45 µg/mL; Activity (Mus musculus [8]): Toxic
11 | CC(C)[N+]1(C)C2CCC1CC(OC(=O)C(CO)c1ccccc1)C2.O.[Br-] (stereo unspecified) | – | – | – | – | – | Activity (Mus musculus [8]): Toxic
12 | O=C(O[C@H]1C[N+]2(CCCOc3ccccc3)CCC1CC2)C(O)(c1ccccc1)c1ccccc1.[Br-] | – | – | 0.31 nM | Non-toxic | – | Time (Cavia porcellus [5]): >6 h
13 | O=C(O[C@H]1C[N+]2(CCCOc3ccccc3)CCC1CC2)C1(O)c2ccccc2-c2ccccc21.[Br-] | 0.71 nM | 1.08 nM | 0.63 nM | Non-toxic | – | Time (Cavia porcellus [5]): >6 h
14 | CC1(C(=O)O[C@H]2C[N+]3(CCCOc4ccccc4)CCC2CC3)c2ccccc2Oc2ccccc21.[Br-] | – | 0.27 nM | 0.28 nM | Non-toxic | – | –
15 | O=C(O[C@H]1C[N+]2(CCCOc3ccccc3)CCC1CC2)C(O)(c1cccs1)c1cccs1.[Br-] [ACLIDINIUM BROMIDE] | – | – | 0.14 nM | Non-toxic | >6 h | Time (Cavia porcellus [14]): >6 h; IC50 (Cavia porcellus [13]): 140 µg/mL; Ki [7]: 0.08 nM; Activity (Mus musculus [8]): Non-toxic; half-life [9]: 2.2 min; half-life [11]: 60 min
16 | O=C(O[C@H]1C[N+]2(CCc3ccccc3)CCC1CC2)C1c2ccccc2Oc2ccccc21.[Br-] | 0.31 nM | 1.82 nM | 0.44 nM | Non-toxic | >6 h | –
17 | O=C(O[C@H]1C[N+]2(CCCCc3ccccc3)CCC1CC2)C(O)(c1cccs1)c1cccs1.[Br-] | 0.45 nM | 0.38 nM | 0.29 nM | Non-toxic | 6 h | Time (Cavia porcellus [5]): 6 h
18 | O=C(O[C@H]1C[N+]2(CCc3ccccc3)CCC1CC2)C1(O)c2ccccc2Oc2ccccc21.[Br-] | 0.28 nM | 0.54 nM | 0.29 nM | Non-toxic | >6 h | –
19 | CC1(C(=O)O[C@H]2C[N+]3(CCCOc4ccccc4)CCC2CC3)c2ccccc2-c2ccccc21.[Br-] | 0.96 nM | 2.1 nM | 1.26 nM | Non-toxic | – | –
